Measurements reported in patent US20250145715A1, “B7-H3 TARGETING FUSION PROTEINS AND METHODS OF USE THEREOF” (GT Biopharma, Inc., priority 2021, published 2025).

Experiments:
Format in all cases: cell-based, human
T cells (CD56−CD3+) = assay: T cell proliferation in PBMCs, CellTrace Violet dilution; settings: 7 days, 5 nM equimolar
Protocol: FIGS. 2A-2H illustrates that cam1615B7-H3 TriKE induces potent, and specific, natural killer (NK) cell proliferation. Peripheral blood mononuclear cells (PBMCs) were CellTrace Violet labeled and incubated for seven days at 5 nM equimolar concentrations of rhIL-15 or cam1615B7-H3 TriKE. On day 7, the cells were harvested and stained for flow cytometric evaluation. […] FIG. 2B is a graph illustrating pooled data showing the overall proportion of NK cells that proliferated. FIG. 2C is a graph illustrating pooled data showing the proportion of NK cells that highly proliferated (measured as proliferation beyond three divisions). FIG. 2D is a graph illustrating pooled data showing NK cell counts in the cultures (N=9). FIG. 2E is a representative histogram showing T cell (CD56− CD3+) proliferation. FIG. 2F is a graph illustrating pooled data showing the overall proportion of T cells proliferated. FIG. 2G is a graph illustrating pooled data showing the proportion of T cells highly proliferated. FIG. 2H is a graph illustrating pooled data showing T cell counts in the cultures (N=9). * p<0.05, ** p<0.01, *** p<0.001.
The wild-type IL-15 moiety in the cam1615B7-H3 TriKE was designed to induce targeted delivery of a proliferative signal to NK cells. To test this, proliferation assays evaluating dilution of a CellTrace dye over a 7-day period were carried out on PBMCs treated with no treatment (NT), monomeric rhIL-15 (IL15), or the TriKE (cam1615B7-H3). At the end of the seven days, cells were harvested and proliferation was evaluated by gating on CD56+CD3− cells. […] Since IL-15 acts on both NK cells and T cells, specificity was evaluated next by gating on T cells (CD56-CD3+).
To measure the ability of the TriKE to specifically induce NK cell expansion via the IL-15 moiety, PBMCs from healthy donors were labeled with CellTrace Violet Proliferation Dye (Invitrogen, Carlsbad, CA, USA) according to kit specifications. After staining, cells were cultured with TriKEs at noted concentrations, or equimolar concentrations of controls, and incubated in a humidified atmosphere containing 5% CO2 at 37° C. for seven days. Cells were harvested, stained for viability with Live/Dead reagent (Invitrogen, Carlsbad, CA, USA) and surface stained for anti-CD56 PE/Cy7 (Biolegend, San Diego, CA, USA) and anti-CD3 PE-CF594 (BD Biosciences, Franklin Lakes, NJ, USA) to gate on the viable CD56+ CD3− NK cell population or the CD56-CD3+ T cell population. Data analysis was performed using FlowJo software (FlowJo LCC, version 7.6.5, Ashland, OR, USA).

[1] = tested on: OVCAR8 ovarian cancer cells; assay: NK cell CD107a / IFNγ flow cytometry against OVCAR8; settings: individual components with PBMCs and OVCAR8
Protocol: FIG. 29A is a graph illustrating pooled proportion of NK cells from healthy donors expressing CD107a+ (degranulation) against OVCAR8 and MA148 targets. FIG. 29B is a graph illustrating pooled proportion of NK cells from healthy donors expressing IFNγ cytokine production against OVCAR8 and MA148 targets.
Healthy donor or ovarian cancer PBMC cells were incubated with ovarian tumor targets at 2:1 E:T ratio for 4 hrs with 30 nM TriKE or control condition. FIG. 30A is a graph illustrating pooled proportion of NK cells from healthy donors expressing CD107a+ (degranulation) against OVCAR8 targets (N=8). FIG. 30B is a graph illustrating pooled proportion of NK cells from healthy donors expressing IFNγ cytokine production against OVCAR8 targets (N=8). FIG. 30C is a graph illustrating pooled proportion of NK cells from healthy donors expressing CD107a+ (degranulation) against OVCAR3 targets (N=4). FIG. 30D is a graph illustrating pooled proportion of NK cells from healthy donors expressing IFNγ cytokine production against OVCAR3 targets (N=4). FIG. 30E is a graph illustrating pooled proportion of NK cells from healthy donors expressing CD107a+ (degranulation) against OVCAR5 targets (N=7). FIG. 30F is a graph illustrating pooled proportion of NK cells from healthy donors expressing IFNγ cytokine production against OVCAR5 targets (N=7). […] FIG. 30I is a graph illustrating that tumor killing was evaluated using IncuCyte imaging assay. […] The percentage of Live (Nuclight Red+Caspase 3/7−) tumor cells was quantified over a 48-h period and normalized to tumor alone. Readings were obtained every 15 min (representative of four separate experiments). * p<0.05, ** p<0.01, *** p<0.001, and **** p<0.0001.
ADCC was measured in a flow cytometry assay by evaluating degranulation via CD107a (lysosomal-associated membrane protein LAMP-1) and intracellular IFNγ production. […] Samples were washed and evaluated in an LSRII flow cytometer (BD Biosciences, San Jose, CA, USA).
The ability of cam1615B7-H3 TriKE to mediate NK cell activity against ovarian cancer cells was evaluated. […]

U266 cells = assay: IncuCyte Zoom NK cell killing of U266; settings: bortezomib 10 nM with B7-H3-TriKE and NK cells, 48 hours
Description: (§1) FIGS. 7A-7B illustrate the ability of peripheral blood NK cells with or without B7-H3-TriKE to kill myeloma cells in live imaging IncuCyte Zoom assays. FIG. 7A is a graph showing the effects with effector:target (E:T) ratios of 2:1 and 4:1 on MM1S cells. FIG. 7B is a graph showing the effects with effector:target (E:T) ratios of 2:1 and 4:1 on U266 cells.
as §1, with “8A-8D” for “7A-7B”, “8A is a graph showing the effects with effector:target (E:T) ratios of 2:1 and 4:1 on H929 cells. FIG. 8B” for “7A”, “8C is a graph showing the effects with effector:target (E:T) ratios of 2:1 and 4:1 on RPMI-8226 cells. FIG. 8D” for “7B”
FIGS. 9A-9D illustrate the efficacy of B7-H3-TriKE with the proteasome inhibitor bortezomib (10 nM) and the immunomodulatory drug lenalidomide (5 μM). FIG. 9A is a graph showing the effect of the combination therapy on H929 cells after 48 hours. FIG. 9B is a graph showing the effect of the combination therapy on RPMI-8226 cells after 48 hours. FIG. 9C is a graph showing the effect of the combination therapy on MM1S cells after 48 hours. […]

MM1S cells = assay: IncuCyte Zoom NK cell killing of MM1S; settings: bortezomib 10 nM or lenalidomide 5 μM with B7-H3 TriKE and NK cells, 48 hours; not statistically significant
Description: as §1
as §1, with “8A-8D” for “7A-7B”, “8A is a graph showing the effects with effector:target (E:T) ratios of 2:1 and 4:1 on H929 cells. FIG. 8B” for “7A”, “8C is a graph showing the effects with effector:target (E:T) ratios of 2:1 and 4:1 on RPMI-8226 cells. FIG. 8D” for “7B”
(§2) FIGS. 9A-9D illustrate the efficacy of B7-H3-TriKE with the proteasome inhibitor bortezomib (10 nM) and the immunomodulatory drug lenalidomide (5 μM). FIG. 9A is a graph showing the effect of the combination therapy on H929 cells after 48 hours. FIG. 9B is a graph showing the effect of the combination therapy on RPMI-8226 cells after 48 hours. FIG. 9C is a graph showing the effect of the combination therapy on MM1S cells after 48 hours. FIG. 9D is a graph showing the effect of the combination therapy on U266 cells after 48 hours.
(§3) The ability of peripheral blood NK cells with or without B7-H3-TriKE to kill myeloma cells was compared in live imaging IncuCyte Zoom assays with escalating doses of TriKE. Maximal killing occurred with 3 nM concentration.
(§4) The efficacy of B7-H3-TriKE with the proteasome inhibitor bortezomib (10 nM) and the immunomodulatory drug lenalidomide (5 μM) was also tested. Cytotoxicity curves were compared by repeated measures ANOVA and performed in triplicate.

RPMI-8226 cells = assay: IncuCyte Zoom NK cell killing of RPMI-8226; settings: bortezomib 10 nM or lenalidomide 5 μM with B7-H3-TriKE and NK cells, 48 hours
Description: as §1, with “8A-8D” for “7A-7B”, “8A is a graph showing the effects with effector:target (E:T) ratios of 2:1 and 4:1 on H929 cells. FIG. 8B” for “7A”, “8C is a graph showing the effects with effector:target (E:T) ratios of 2:1 and 4:1 on RPMI-8226 cells. FIG. 8D” for “7B”
as §2, §3, §4

H929 cells = assay: IncuCyte Zoom NK cell killing of H929; settings: bortezomib 10 nM or lenalidomide 5 μM with B7-H3-TriKE and NK cells, 48 hours
Description: as §1, with “8A-8D” for “7A-7B”, “8A is a graph showing the effects with effector:target (E:T) ratios of 2:1 and 4:1 on H929 cells. FIG. 8B” for “7A”, “8C is a graph showing the effects with effector:target (E:T) ratios of 2:1 and 4:1 on RPMI-8226 cells. FIG. 8D” for “7B”
as §2, §3, §4

Molecule | overall T cell proliferation (T cells (CD56−CD3+)) | NK cell activity against OVCAR8 by individual components [1] | killing of U266 in combination therapy (U266 cells) | killing of MM1S in combination therapy (MM1S cells) | killing of RPMI-8226 in combination therapy (RPMI-8226 cells) | killing of H929 in combination therapy (H929 cells)
rhIL-15: monomeric recombinant human IL-15 control [reference compound] | robust proliferation of T cells | do not enhance NK cell activity | – | – | – | –
CC(C)C[C@H](NC(=O)[C@H](Cc1ccccc1)NC(=O)c1cnccn1)B(O)O [bortezomib, reference compound] | – | – | enhanced killing | trend toward improved killing | synergistic killing | did not further enhance killing
Nc1cccc2c1CN(C1CCC(=O)NC1=O)C2=O (stereo not drawn) [lenalidomide] | – | – | – | trend toward improved killing | synergistic killing | synergistic killing
